Measurements taken from the CheMixHub viscosity set.
± gives the uncertainty stated by the source.

Test: xn = mol fraction of the nth substance listed

CCCN + COCCO
viscosity [mPa·s]
Conditions	293.15 K	298.15 K
101 kPa, x2 = 0.0294	–	0.387 ± 0.007
101 kPa, x2 = 0.0662	–	0.415 ± 0.007
101 kPa, x2 = 0.0845	–	0.431 ± 0.007
101 kPa, x2 = 0.1053	–	0.448 ± 0.007
101 kPa, x2 = 0.1391	–	0.482 ± 0.007
101 kPa, x2 = 0.1936	–	0.54 ± 0.007
101 kPa, x2 = 0.2423	–	0.6 ± 0.008
101 kPa, x2 = 0.2765	–	0.644 ± 0.008
101 kPa, x2 = 0.321	–	0.708 ± 0.008
101 kPa, x2 = 0.3635	–	0.775 ± 0.008
101 kPa, x2 = 0.3989	–	0.835 ± 0.008
101 kPa, x2 = 0.4418	–	0.909 ± 0.009
101 kPa, x2 = 0.4845	–	0.974 ± 0.009
101 kPa, x2 = 0.5165	–	1.031 ± 0.009
101 kPa, x2 = 0.5599	–	1.106 ± 0.009
101 kPa, x2 = 0.5942	–	1.166 ± 0.01
101 kPa, x2 = 0.6575	–	1.265 ± 0.01
101 kPa, x2 = 0.6877	–	1.309 ± 0.01
101 kPa, x2 = 0.7452	–	1.384 ± 0.011
101 kPa, x2 = 0.8042	–	1.442 ± 0.011
101 kPa, x2 = 0.8424	–	1.47 ± 0.011
101 kPa, x2 = 0.8852	–	1.495 ± 0.011
101 kPa, x2 = 0.9064	–	1.505 ± 0.011
101 kPa, x2 = 0.9584	–	1.522 ± 0.011
101 kPa, x2 = 0.9794	–	1.527 ± 0.011
101.3 kPa, x2 = 0.0502	0.396 ± 0.011	0.38 ± 0.011
101.3 kPa, x2 = 0.1009	0.435 ± 0.011	0.415 ± 0.011
101.3 kPa, x2 = 0.1501	0.479 ± 0.011	0.453 ± 0.011
101.3 kPa, x2 = 0.2002	0.533 ± 0.011	0.501 ± 0.011
101.3 kPa, x2 = 0.2504	0.599 ± 0.011	0.559 ± 0.011
101.3 kPa, x2 = 0.3	0.674 ± 0.011	0.627 ± 0.011
101.3 kPa, x2 = 0.3498	0.759 ± 0.012	0.703 ± 0.011
101.3 kPa, x2 = 0.3997	0.852 ± 0.012	0.785 ± 0.012
101.3 kPa, x2 = 0.4499	0.95 ± 0.012	0.87 ± 0.012
101.3 kPa, x2 = 0.4998	1.05 ± 0.013	0.955 ± 0.012
101.3 kPa, x2 = 0.5504	1.149 ± 0.013	1.039 ± 0.013
101.3 kPa, x2 = 0.6	1.241 ± 0.014	1.116 ± 0.013
101.3 kPa, x2 = 0.6498	1.325 ± 0.014	1.186 ± 0.013
101.3 kPa, x2 = 0.6999	1.4 ± 0.014	1.249 ± 0.014
101.3 kPa, x2 = 0.7495	1.462 ± 0.015	1.304 ± 0.014
101.3 kPa, x2 = 0.8	1.515 ± 0.015	1.354 ± 0.014
101.3 kPa, x2 = 0.8511	1.561 ± 0.015	1.4 ± 0.014
101.3 kPa, x2 = 0.8999	1.601 ± 0.015	1.443 ± 0.015
101.3 kPa, x2 = 0.9499	1.647 ± 0.016	1.49 ± 0.015
